Laboratory results published in the supplement of paper PMC5303821, “Major sulfonate transporter Soa1 in Saccharomyces cerevisiae and considerable substrate diversity in its fungal family” (Nature Communications, 2017).

Tests used:
Conditions in all cases: sulfur source concentration 200 µM; S. cerevisiae S288C/BY sul1Δ sul2Δ soa1Δ with transporter ortholog inserted at SOA1 locus; sulfur-free B medium, 4% glucose, pH 6.5, sole sulfur source
[1] = system: Saccharomyces uvarum_SOA1; experiment: maximal culture density with compound as sole sulfur source (OD600); higher = better growth
Procedure: (§1)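 S. cerevisiae sul1Δ sul2Δ soa1Δ strains expressing 20 fungal SOA1 orthologs (or no transporter, 'soa1 del') were grown in liquid sulfur-free B medium, 4% glucose, pH 6.5 (7 mM K2HPO4). The strains were sulfur-starved for 3 days beforehand. Each sulfur compound was the sole sulfur source at 200 µM (sulfate also at 40 mM). OD600 curves of duplicate cultures were averaged and fitted (logistic / Richards, GroFit) to give maximal growth rate, maximal density and lag phase; temperature not stated.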

[2] = system: Ogataea parapolymorpha_XP_013935289; experiment: as above
Procedure: as §1

[3] = system: Aspergillus nidulans (IAM 2006)_astA; experiment: as above
Procedure: as §1

soa1 del [4] = experiment: as above
Procedure: as §1

[5] = system: Ogataea parapolymorpha_XP_013932458; experiment: as above
Procedure: as §1

[6] = system: Metarhizium robertsii_XP_007823832; experiment: as above
Procedure: as §1

[7] = system: Saccharomyces cerevisiae_SOA1; experiment: as above
Procedure: as §1

[8] = system: Ogataea parapolymorpha_XP_013936897; experiment: as above
Procedure: as §1

[9] = system: Metarhizium robertsii_XP_007821441; experiment: as above
Procedure: as §1

[10] = system: Aspergillus nidulans_XP_660670; experiment: as above
Procedure: as §1

[11] = system: Aspergillus nidulans_XP_661711; experiment: as above
Procedure: as §1

[12] = system: Saccharomyces eubayanus_SOA2; experiment: as above
Procedure: as §1

[13] = system: Aspergillus nidulans_CBF74694; experiment: as above
Procedure: as §1

[14] = system: Metarhizium robertsii_XP_007822519; experiment: as above
Procedure: as §1

[15] = system: Aspergillus nidulans_XP_681611; experiment: as above
Procedure: as §1

[16] = system: Aspergillus nidulans_CBF80346; experiment: as above
Procedure: as §1

[17] = system: Saccharomyces uvarum_SOA2; experiment: as above
Procedure: as §1

[18] = system: Aspergillus nidulans_XP_661733; experiment: as above
Procedure: as §1

[19] = system: Saccharomyces eubayanus_SOA1; experiment: as above
Procedure: as §1

[20] = system: Aspergillus nidulans_XP_660563; experiment: as above
Procedure: as §1

[21] = system: Saccharomyces uvarum_SOA1; experiment: maximal growth rate with compound as sole sulfur source (OD600 per h); higher = better growth / uptake of the sulfur source
Procedure: as §1

[22] = system: Ogataea parapolymorpha_XP_013935289; experiment: as above
Procedure: as §1

[23] = system: Aspergillus nidulans (IAM 2006)_astA; experiment: as above
Procedure: as §1

soa1 del [24] = experiment: as above
Procedure: as §1

[25] = system: Ogataea parapolymorpha_XP_013932458; experiment: as above
Procedure: as §1

[26] = system: Metarhizium robertsii_XP_007823832; experiment: as above
Procedure: as §1

[27] = system: Saccharomyces cerevisiae_SOA1; experiment: as above
Procedure: as §1

[28] = system: Ogataea parapolymorpha_XP_013936897; experiment: as above
Procedure: as §1

[29] = system: Metarhizium robertsii_XP_007821441; experiment: as above
Procedure: as §1

[30] = system: Aspergillus nidulans_XP_660670; experiment: as above
Procedure: as §1

[31] = system: Fusarium oxysporum_ENH65823; experiment: as above
Procedure: as §1

[32] = system: Aspergillus nidulans_XP_661711; experiment: as above
Procedure: as §1

[33] = system: Saccharomyces eubayanus_SOA2; experiment: as above
Procedure: as §1

[34] = system: Aspergillus nidulans_CBF74694; experiment: as above
Procedure: as §1

[35] = system: Metarhizium robertsii_XP_007822519; experiment: as above
Procedure: as §1

[36] = system: Aspergillus nidulans_XP_681611; experiment: as above
Procedure: as §1

[37] = system: Aspergillus nidulans_CBF80346; experiment: as above
Procedure: as §1

[38] = system: Saccharomyces uvarum_SOA2; experiment: as above
Procedure: as §1

[39] = system: Aspergillus nidulans_XP_661733; experiment: as above
Procedure: as §1

[40] = system: Saccharomyces eubayanus_SOA1; experiment: as above
Procedure: as §1

[41] = system: Aspergillus nidulans_XP_660563; experiment: as above
Procedure: as §1

[42] = system: Ogataea parapolymorpha_XP_013935289; experiment: lag phase before growth; higher = slower start of growth
Procedure: as §1

[43] = system: Saccharomyces cerevisiae_SOA1; experiment: as above
Procedure: as §1

[44] = system: Saccharomyces uvarum_SOA2; experiment: as above
Procedure: as §1

[45] = system: Aspergillus nidulans_XP_661733; experiment: as above
Procedure: as §1

For `O=C(O)CS(=O)(=O)O` [Sulfoacetic acid], the maximal culture density [1] was 0.391, the maximal culture density [2] was 1.33 and the maximal culture density [3] was 0.731. It also gave a maximal culture density (soa1 del [4]) of 0.216, a maximal culture density [5] of 0.251 and a maximal culture density [6] of 0.712. The maximal culture density [7] was 1.28, the maximal culture density [8] was 0.275 and the maximal culture density [9] was 0.225. It also gave a maximal culture density [10] of 0.222, a maximal culture density [11] of 0.223 and a maximal culture density [12] of 0.211. The maximal culture density [13] was 0.183, the maximal culture density [14] was 0.282 and the maximal culture density [15] was 0.3. It also gave a maximal culture density [16] of 0.223, a maximal culture density [17] of 1.01 and a maximal culture density [18] of 0.777. It also gave a maximal culture density [19] of 0.274, a maximal culture density [20] of 0.308 and a maximal growth rate [21] of 0.00282. It also gave a maximal growth rate [22] of 0.0296, a maximal growth rate [23] of 0.0131 and a maximal growth rate (soa1 del [24]) of 0.00385. For the same molecule, the maximal growth rate [25] was 0.00439, the maximal growth rate [26] was 0.0177 and the maximal growth rate [27] was 0.0325. The maximal growth rate [28] was 0.00474, the maximal growth rate [29] was 0.00346 and the maximal growth rate [30] was 0.00401. For the same molecule, the maximal growth rate [31] was 0.00684, the maximal growth rate [32] was 0.00399 and the maximal growth rate [33] was 0.00305. For the same molecule, the maximal growth rate [34] was 0.00286, the maximal growth rate [35] was 0.00308 and the maximal growth rate [36] was 0.00636. The maximal growth rate [37] was 0.00462, the maximal growth rate [38] was 0.0314 and the maximal growth rate [39] was 0.0174. For the same molecule, the maximal growth rate [40] was 0.0033, the maximal growth rate [41] was 0.00621 and the “lag phase before growth” value [42] was 8.28 h. For the same molecule, the “lag phase before growth” value [43] was 9.42 h, the “lag phase before growth” value [44] was 38.2 h and the “lag phase before growth” value [45] was 26.9 h.
